Six compounds from patent EP1013272A1, “Manipulation of the activity of a nitric oxide radical production pathway for the treatment of diseases associated with the presence of oxygen free radicals” (Biomedical Primate Research Centre (BPRC), priority 1998, dated 2000) can be followed below.

Series [1] concerns Con A-activated splenocytes. Nature of the series: ELISPOT enumeration of IFN-γ and IL-4 producing cells in Con A-stimulated spleen cell cultures with culture supplements. The series is classed as cell-based, rat. The protocol:
The aseptically removed spleen was gently crushed with the blunt end of a 5-ml syringe plunger and passaged through a fine mesh nylon screen. Erythrocytes were hemolysed by adding cold sterile water for 20 sec. to cell pellets followed by the addition of half the volume of 2.7% saline. The number of cells was determined by use of Türk's solution and cell viability by means of trypan blue exclusion. Cell suspensions in which the viability was less than 85% were excluded from the studies. Splenocytes were washed twice with CM5, adjusted to 4 x 10^6 cells/ml, transferred to a 24-well culture plate (1.0 ml/well) and stimulated with Con A (5 µg/ml) in the presence or absence of various supplements (as indicated in the text) for 40 h at 37°C in a humidified atmosphere containing 5% CO2. Thereafter, non-adherent cells were collected and subjected to ELISPOT analyses as described below.
The ELISPOT assay for detecting single cytokine secreting cells has been detailed previously (17). Briefly, the wells of PVC microplates were coated with monoclonal antibodies specific for rat IFN-γ or rat IL-4. After washing and postcoating, 100 µl suspensions of Con A-activated splenocytes were pipetted into the wells. The cells were allowed the produce cytokines for either 4 h (IFN-γ pc) or 16 h (IL-4 pc). Thereafter, cells were lysed for 10 minutes with ice-cold distilled water. Subsequently, the wells were thoroughly washed with PBS containing 0.05% Tween-20. Spots were detected by the sequential incubation of biotinylated rabbit anti-cytokine antibodies and goat anti-biotin antibodies conjugated to alkaline phosphatase (AP). The AP substrate 5-bromo-4-chloro-3-indolyl phosphate was used to produce blue zones ('spots') that visualised the positions of the individual spot-forming cells (SFC). SFC were enumerated by image analysis using a stereo microscope coupled to a colour video camera and Micro Image software from Olympus Optical Co. The frequency of spontaneously occurring SFC was always less than 1% of the mitogen-induced frequency.

Series [2] is described as follows: GSH-mediated decomposition of GSNO in phosphate buffer (absorbance 335 nm, nitrite, nitrate, ammonia). The series is classed as physicochemical. As for the experimental part: For each experiment GSNO was prepared freshly. […] Three independent experiments were performed with similar results. […] Nitrite levels were measured by the colorimetric Griess reaction. Two independent experiments were performed which produced similar results.
Nitrate was not detected in the solutions.

The subject of series [3] is peritoneal macrophages. Description: H2O2 production by purified peritoneal macrophages (homovanillic acid/HRP). As to conditions: stimulus PMA 5 ng/ml. The series is classed as cell-based, rat. The protocol: The spontaneous or PMA/IFN-γ-triggered release of H2O2 was determined by the same method as described for splenocytes. Macrophage monolayers were incubated for 24 h in CM10 with or without rat IFN-γ (1000 U/ml). Subsequently, cells were washed twice with prewarmed PBS and incubated for 1 h in 1.0 ml PBS containing […] CaCl2, […] MgCl2, […] D-glucose, 1.0 unit HRP, […] homovanillic acid and 5 ng/ml PMA. After termination of the reaction, the amount of oxidised homovanillic acid in the supernatant was determined spectrofluorometrically. The cellular proteins in the wells were solubilized by adding 250 µl 0.5% (w/v) sodium dodecylsulphate in 0.2 N NaOH. The amount of solubilized protein was determined by a modification of the Lowry method (19). The results are expressed as nmoles H2O2 per mg of protein.
(§1) Peritoneal cells were collected from rats by lavage with 10 ml ice-cold saline containing 50 units/ml heparin. Cells were washed twice with CM10 and resuspended in CM10 to a concentration of 2 x 10^6 cells/ml. Total cell counts were obtained with a Bürker hemocytometer and differential counts performed on centrifuge preparations fixed in absolute methanol and stained with Giemsa stain. The peritoneal cell suspension of Lewis rats consisted of 70 ± 3% macrophages, 13 ± 1% lymphocytes, 14 ± 1% granulocytes and 3 ± 1% mast cells (n = 3). […]

The subject of series [4] is peritoneal macrophages. Nature of the series: Superoxide anion production by purified peritoneal macrophages (SOD-inhibitable ferricytochrome C reduction). The series is classed as cell-based, rat. As to conditions: stimulus PMA 5 ng/ml. The protocol: as §1, with “3). The peritoneal cells of BN rats were composed of 61 ± 2% macrophages, 12 ± 1% lymphocytes, 26 ± 2% granulocytes and 2 ± 1% mast cells (n = 3). Cells were fractionated by culturing them in the wells of a 24-well tissue culture plate at a concentration of 2 x 10^6 cells/ml in CM10.” for “3).”
The pMØ monolayers were incubated for 20 h at 37°C in CM10 and subsequently washed (twice) with Hanks' balanced salt solution (HBSS) without phenol red. […] Each test was run in duplicate and the absorption increase at 550 nm was measured using a Beckmann DU-5 spectrophotometer. ^·O2^- release by splenocytes was determined after Con A activation of 4 x 10^6 cells for 20 h. […]

Where [5] appears, read: BN naive rats, NMMA 180 µM added after 20 h Con A + 2 mM GSH, further 20 h.
Setting [6] is: BN naive rats, NMMA 360 µM added after 20 h Con A + 2 mM GSH, further 20 h.
Setting [7] is: BN, HgCl2-exposed rats, NMMA 180 µM added after 20 h Con A + 2 mM GSH, further 20 h.
Setting [8] is: BN, HgCl2-exposed rats, NMMA 360 µM added after 20 h Con A + 2 mM GSH, further 20 h.
[9] abbreviates: Lewis naive rats, NMMA 180 µM added after 20 h Con A + 2 mM GSH, further 20 h.
[10] abbreviates: Lewis naive rats, NMMA 360 µM added after 20 h Con A + 2 mM GSH, further 20 h.
[11] abbreviates: Lewis, HgCl2-exposed rats, NMMA 180 µM added after 20 h Con A + 2 mM GSH, further 20 h.
[12] abbreviates: Lewis, HgCl2-exposed rats, NMMA 360 µM added after 20 h Con A + 2 mM GSH, further 20 h.
[13] abbreviates: BN normal rats, GSH 2 mM, Con A.
The mark [14] stands for this setting: Lewis normal rats, GSH 2 mM, Con A.
Setting [15] is: excess reducing agent added to cultures, splenocytes from BN or Lewis rats.
[16] abbreviates: normal Lewis rats, GSH 2 mM, no XO/HY, Con A 5 µg/ml (Table 5).

SMILES strings stand for the structures.

Take `OO` [H2O2, hydrogen peroxide]: the “frequencies of IFN-γ pc and IL-4 pc” value in series [1] (H2O2 up to 100 µM added to cultures (not shown)) is reported as “did not affect”.

As to `N[C@@H](CCC(=O)N[C@@H](CSN=O)C(=O)NCC(=O)O)C(=O)O` [GSNO, S-nitrosoglutathione], in series [2] (GSH-triggered decomposition of GSNO), the “Nitrate in the solutions” value was “not detected”. The “decomposition of GSNO” value in series [2] (absence of GSH, 0.1 mM, 42 h, room temperature (not shown)) was “no significant decomposition”. Further, in series [2] (molar ratios exceeding 20 (Fig. 5)), the major decomposition product entry is recorded as “NH3”. The “time in which decomposition was almost completed” value in series [2] (ratio of GSH:GSNO of 320 (fig. 3)) is recorded as about 5 h.

Take `CNC(=N)NCCC[C@H](N)C(=O)O` [NMMA, N^G-monomethyl-L-arginine]: the “IFN-γ pc per 1x10^4 MNC” value in series [1] (setting [5]) is 209 ± 19 per 1x10^4 MNC; in series [1] (setting [6]), 251 ± 14 per 1x10^4 MNC; in series [1] (setting [7]), 71 ± 11 per 1x10^4 MNC; in series [1] (setting [8]), 92 ± 17 per 1x10^4 MNC; in series [1] (setting [9]) it was 175 ± 9 per 1x10^4 MNC; in series [1] (setting [10]) it was 178 ± 11 per 1x10^4 MNC. For the same compound, the “IFN-γ pc per 1x10^4 MNC” value was determined as 112 ± 5 per 1x10^4 MNC in series [1] (setting [11]) and 135 ± 10 per 1x10^4 MNC in series [1] (setting [12]). The “IL-4 pc per 2x10^5 MNC” value in series [1] (setting [5]) was 32 ± 6 per 2x10^5 MNC; in series [1] (setting [6]) it was 30 ± 2 per 2x10^5 MNC; in series [1] (setting [7]), 54 ± 11 per 2x10^5 MNC; in series [1] (setting [8]) it was 20 ± 5 per 2x10^5 MNC; in series [1] (setting [9]) it was 14 ± 7 per 2x10^5 MNC; in series [1] (setting [10]), 13 ± 2 per 2x10^5 MNC. Moreover, the “IL-4 pc per 2x10^5 MNC” value in series [1] (setting [11]) is reported as 10 ± 5 per 2x10^5 MNC; in series [1] (setting [12]), 8 ± 2 per 2x10^5 MNC. The “ratio pc IFN-γ/IL-4” value in series [1] (setting [5]) is 131; in series [1] (setting [6]), 167; in series [1] (setting [7]), 26; in series [1] (setting [8]), 92; in series [1] (setting [9]), 250; in series [1] (setting [10]), 274. In addition, the “ratio pc IFN-γ/IL-4” value in series [1] (setting [11]) was found to be 224; in series [1] (setting [12]), 338. Also, the “enhancement of the ratio of IFN-γ pc/IL-4 pc” value in series [1] (HgCl2-exposed rats, BN splenocyte cultures) is 11 fold; in series [1] (HgCl2-exposed rats, Lewis splenocyte cultures), 2 fold. In series [1] (splenocyte cultures of naive BN rats), the “increase in the ratio of IFN-γ pc/IL-4 pc” value was 4 fold.

On to `N[C@@H](CCC(=O)N[C@@H](CS)C(=O)NCC(=O)O)C(=O)O` [GSH, Glutathione], for which the “IFN-γ pc per 1x10^4 MNC” value in series [1] (setting [13]) is listed as 98 ± 11 per 1 x 10^4 MNC; in series [1] (setting [14]), 139 ± 14 per 1 x 10^4 MNC; in series [1] (setting [16]) it was 103 ± 23 per 1 x 10^4 MNC. Besides, the “IL-4 pc per 2x10^5 MNC” value is 60 ± 5 per 2 x 10^5 MNC in series [1] (setting [13]), 11 ± 3 per 2 x 10^5 MNC in series [1] (setting [14]) and 6 ± 1 per 2 x 10^5 MNC in series [1] (setting [16]). Moreover, the “ratio IFN-γ pc/IL-4 pc” value in series [1] (setting [13]) amounted to 34; in series [1] (setting [14]) it was 253; in series [1] (setting [16]), 343. Further, the “enhancement of the ratio of IFN-γ pc/IL-4 pc” value in series [1] (setting [15]) is reported as “approximately 10 fold”.

As to `CCCCCCCCCCCCCC(=O)O[C@@H]1[C@@H](C)[C@@]2(O)[C@@H](C=C(CO)C[C@]3(O)C(=O)C(C)=C[C@@H]23)[C@@H]2C(C)(C)[C@]12OC(C)=O` [PMA, phorbol 12-myristate 13-acetate], the “ROI H2O2 (nmol/mg protein)” value is given as 8.7 nmol/mg protein in the series on peritoneal macrophages [3] (BN normal rats) and 1.9 nmol/mg protein with peritoneal macrophages [3] (Lewis normal rats). For the same compound, the “ROI ^·O2^- (nmol/mg protein)” value is recorded as 388.2 nmol/mg protein with peritoneal macrophages [4] (BN normal rats) and 62.1 nmol/mg protein in the series with peritoneal macrophages [4] (Lewis normal rats).

Turning to `N[C@@H](CS)C(=O)O` [cysteine], in series [1] (setting [15]), the “enhancement of the ratio of IFN-γ pc/IL-4 pc” value is “approximately 10 fold”.
